US12168781B2, “Production method for T cells or NK cells, medium for culturing T cells or NK cells, method for culturing T cells or NK cells, method for maintaining undifferentiated state of undifferentiated T cells, and growth-accelerating agent for T cells or NK cells” (KIRIN HOLDINGS KABUSHIKI KAISHA, priority 2018, dated 2024)

Tested on: T-iPS-T cells
Assay: Feeder-free culture of T-iPS-T cells, FACS count of PI-negative cells and CD45RA(+)CCR7(+) cells
Assay type: cell-based, human
Conditions: 6 days; for Number of CD45RA+CCR7+ cells: DMSO 3891 ± 3170; for Cell number: DMSO 16096 ± 10785
Procedure: After washing, the cells were resuspended in the staining solution containing PI. Half the amount was analyzed using a BD LSR Fortessa cytometer (BD Bioscience) equipped with HTS, and all cells were recorded.
The concentration dependence of the bisbenzylisoquinoline alkaloid represented by the formula (X-1) or the formula (X-2) in feeder-free proliferation of T-iPS-T cells was examined. T-iPS-T cells were cultured using alpha-MEM medium supplemented with 15% FBS, 1% PSG, PAA (50 μg/mL), ITS-G, IL-7 (5 ng/mL), IL-12 (50 ng/mL), IL-15 (5 ng/mL), IL-18 (50 ng/mL), IL-21 (20 ng/mL), and z-VAD-fmk (10 μM).
The effect on culturing of T-iPS-T cells was evaluated by comparing a known compound that contributes to the proliferation of memory T cells with berbamine. […] DMSO (0.1%) that is a solvent for the compound was used as a control.
The number of events of PI-negative cells and the number of events of CD45RA(+)CCR7(+) cells in the PI-negative cells, which were analyzed by FlowJo 9, were used as data. Note that in a statistical analysis, a Student's t-test was used (*: p<0.05).
The effect of the combined use of berbamine with a MAPK cascade inhibitor on the proliferation of memory T cells was examined. […] The final concentration of each compound was set to 1 μM. DMSO (0.1%) that is a solvent for the compound was used as a control.
The number of events (#Cells) of CD45RA(+)CCR7(+) cells in the PI-negative cell population analyzed by FlowJo 9 was plotted and graphed. Note that in a statistical analysis, a Student's t-test was used (*: p<0.05, **P<0.01, ***P<0.001, ****P<0.0001).

Compound | Number of CD45RA+CCR7+ cells (1 nM) | Cell number (1 nM) | Number of CD45RA+CCR7+ cells (3 nM) | Cell number (3 nM) | Number of CD45RA+CCR7+ cells (10 nM) | Cell number (10 nM) | Number of CD45RA+CCR7+ cells (30 nM) | Cell number (30 nM) | Number of CD45RA+CCR7+ cells (100 nM) | Cell number (100 nM) | Number of CD45RA+CCR7+ cells (300 nM) | Cell number (300 nM) | Number of CD45RA+CCR7+ cells (1 μM) | Cell number (1 μM) | Number of CD45RA+CCR7+ cells (3 μM) | Cell number (3 μM) | Number of CD45RA+CCR7+ cells (10 μM) | Cell number (10 μM)
COc1ccc2cc1Oc1ccc(cc1)C[C@H]1c3c(cc4c(c3Oc3cc5c(cc3OC)CCN(C)[C@@H]5C2)OCO4)CCN1C [Cepharanthine, cepharanthine] | 5429 ± 3207 ** | 18312 ± 7127 | 5256 ± 3168 | 19212 ± 8368 | 5632 ± 3014 *** | 20590 ± 9995 | 7764 ± 3495 ** | 29158 ± 12980 * | 9486 ± 4802 * | 41856 ± 9113 ** | 13060 ± 7584 * | 52923 ± 5313 ** | 10741 ± 5793 | 48800 ± 17971 * | 9245 ± 4682 * | 31965 ± 19694 | 1447 ± 2117 | 4884 ± 8378
COc1cc2c3cc1Oc1c(OC)c(OC)cc4c1[C@@H](Cc1ccc(OC(=O)c5ccc([N+](=O)[O-])cc5)c(c1)Oc1ccc(cc1)C[C@@H]3N(C)CC2)N(C)CC4 [E6 Berbamine, E6-berbamine] | 6440 ± 4121 * | 20795 ± 11427 ** | 6205 ± 4137 * | 19420 ± 9845 ** | 6015 ± 4682 | 22404 ± 11035 *** | 7410 ± 4691 * | 28009 ± 13327 * | 10775 ± 5788 * | 44562 ± 11985 ** | 12148 ± 6414 * | 55682 ± 3508 ** | 5075 ± 3582 | 26964 ± 23925 | 2080 ± 3520 | 16367 ± 26569 | 1791 ± 3538 | 8441 ± 16764
